The results in this text go back to patent US9023800B2, “Peptides for the treatment of oxidative stress related disorders” (Ramot at Tel-Aviv University Ltd., priority 2009, dated 2015).

For test [1], the system named is neuronally differentiated murine neural stem cells. Kind of test: Oxidative insult (H2O2) in neuronally differentiated neural stem cells. In kind it is cell-based. The conditions noted are these: pretreated vs saline before exposure to hydrogen peroxide (FIG. 6). How it is done:
Neural progenitor/stem cells are isolated from murine cortex of postnatal c57/bl mice and cultured as neurospheres. Neural and astroglial differentiation are induced.
Susceptibility of differentiated and undifferentiated neural progenitor/stem cells to oxidative and toxic insults are determined with and without prior pretreatment with DJ-1 related peptides.
Susceptibility of differentiated and undifferentiated neural progenitor/stem cells to oxidative and toxic insults was determined with and without prior pretreatment with DJ-1 related peptides, as illustrated in FIG. 6.

Test [2] concerns human neuroblastoma SH-SY5Y cells. Briefly: Serum deprivation in neuroblastoma cells. It counts as cell-based. The conditions noted are these: during serum deprivation, vs saline (FIG. 4A). How it is done: FIG. 4A is a bar graph illustrating that DJ-1-related peptides are protective against serum deprivation.
(§1) Human neuroblastoma SH-SY5Y cells are obtained from the American tissue Type Culture Collection (ATCC, Rockville, USA). Cells are grown under sterile conditions as monolayer in DMEM medium supplemented with 10% heat-inactivated fetal calf serum (FCS), gentamicin ([…]), and glutamine (5 mM) in a 5% CO2 humidified atmosphere at 37° C. The medium is routinely changed every 4 days, and cells are passaged every 8 days. All experiments are performed on cells which are near confluence.

The test system is the same in test [3]. Kind of test: 6-hydroxydopamine toxicity in neuroblastoma cells. In kind it is cell-based. How it is done: Human neuroblastoma SH-SY5Y cells are obtained from the American tissue Type Culture Collection (ATCC, Rockville, USA). Cells are grown under sterile conditions as monolayer in DMEM medium supplemented with 10% heat-inactivated fetal calf serum (FCS), gentamicin ([…]), and glutamine (5 mM) in a 5% CO2 humidified atmosphere at 37° C. The medium is routinely changed every 4 days, and cells are passaged every 8 days. All experiments are performed on cells which are near confluence. […]
(§2) Cells are seeded in 96-wells plates at the concentration of 5000 cells per well and allowed to attach over night. […] Alamar blue fluorescence is measured by FLUOstar spectrofluorometer at the excitation wavelength of 544 nm and the emission wavelength of 590 nm. […]
(§3) LDH released by damaged cells into the cell culture supernatant is determined using LDH cytotoxicity detection kit (Clontech laboratories, CA, USA), according to the manufacturer's instructions. […] The percentage of dead cells is calculated by the following formula of the absorbance values: (triplicate absorbance−low control)/(maximum absorption−low control)×100.
Hoechst 33342 enters cells with intact or damaged membranes and stains DNA in blue, thereby allowing evaluation of cell number in each well as well. […] Excitation is performed at 346 nm and emission wavelength is determined at 460 nm. […]

Test [4] deals with HaCaT cells. Kind of test: Protection against UV radiation in keratinocytes. In kind it is cell-based, human. The conditions noted are these: HaCaT pretreated vs saline before UV radiation (FIG. 14). How it is done:
The immortalized human HaCaT keratinocyte cells are used to test DJ-1 related peptides ability to protect against UV radiation induced injury. Cells are maintained in minimal essential medium containing 0.075 mM Ca^2+ (MEM-75) and 10% FCS in 5 cm Petri-dishes and subcultured every 3-4 days.
Cultured keratinocytes were used to examine the ability of DJ-1 related peptides to protect against the damaging effects of UV radiation.

The subject of test [5] is NSC-34 cells. Briefly: SIN-I toxicity in cellular model of ALS. Particulars: NSC-34 pretreated vs saline before SIN-I (FIG. 12B). It counts as cell-based. On the procedure:
(§4) Neuroblastoma cells are contacted with hydrogen peroxide (H2O2) (0-1 mM; Sigma, Chemicals Co., St. Louis, Mo., USA), 6-hydroxydopamine (0-100 μM; Sigma, Chemicals Co., St. Louis, Mo., USA), dopamine (0-500 μM; Sigma, Chemicals Co., St. Louis, Mo., USA) and 3-(4-morpholinyl)-sydnonimine (SIN-I) (0-5 mM; Sigma), (which is a peroxynitrite free radical donor), in order to produce ROS formation.
(§5) NSC-34 cells were used as a cellular model for ALS. Increasing doses of hydrogen peroxide and SIN-I, an NO donor, which are implicated in the pathogenesis of ALS were used.

Test [6] concerns human neuroblastoma SH-SY5Y cells. Briefly: Cell proliferation by [3H]thymidine incorporation. It counts as cell-based. Particulars: exposure to the peptides (FIG. 1D). On the procedure:
FIGS. 1A-F are bar graphs illustrating that DJ-1-related peptide TAT 2a (SEQ ID NO: 24) is protective in vitro against oxidative and toxic insults. […] Cell proliferation was measured by quantifying [^3H]thymidine incorporation. […] The presented experiments were done on human neuroblastoma SH-SY5Y cells, and repeated at least 3 times. *p<0.05, as compared to control cells treated with vehicle and exposed to the same toxic insult.
as §1

The test system is the same in test [7]. Briefly: Hydrogen peroxide (H2O2) oxidative stress in neuroblastoma cells. It counts as cell-based. How it is done: as §1, §4
Several methods are used in order to determine the toxic effects of oxidative insults, neurotoxins and dopamine on cellular metabolic activity, mitochondrial activity and cell viability.
as §2, §3
Hoechst 33342 enters cells with intact or damaged membranes and stains DNA in blue, thereby allowing evaluation of cell number in each well as well. A FLUOstar spectrofluorometer microplate reader may be used in order to evaluate the cell number in each well following exposure to different doses of various toxins. Excitation is performed at 346 nm and emission wavelength is determined at 460 nm. […]

Test [8] shares this test system. Briefly: Dopamine toxicity in neuroblastoma cells. It counts as cell-based. The conditions noted are these: SH-SY5Y (FIG. 1F). How it is done:
as §1, §4
Cells are seeded in 96-wells plates at the concentration of 5000 cells per well and allowed to attach over night. On the following day, the cells are exposed to increasing doses of dopamine (0-500 uM) for 4 hours in serum free medium. Alamar blue is a non toxic reagent which incorporates a redox indicator that changes color in response to metabolic activity. […] Alamar blue fluorescence is measured by FLUOstar spectrofluorometer at the excitation wavelength of 544 nm and the emission wavelength of 590 nm. […]

Test [9] has as its system NSC-34 cells. Kind of test: Hydrogen peroxide toxicity in cellular model of ALS. It counts as cell-based. Particulars: NSC-34 pretreated vs saline before hydrogen peroxide (FIG. 12A).
Description: as §5

Test [10] has as its system primary mixed neuronal and glial cultures obtained from cortex of postnatal wild type C57/bl mice. Briefly: Hydrogen peroxide toxicity in primary cultures. In kind it is cell-based. Particulars: increasing concentrations of hydrogen peroxide (FIGS. 5A-B). On the procedure:
(§6) Murine neuronal and astrocytes primary cultures derived from cortical tissues of post natal c57/bl mice are prepared and used in order to examine protective potential of DJ-1 related peptides.
(§7) T protective effects of DJ-1 peptides on primary cultures, and on differentiated and undifferentiated neural stem cells obtained from C57/bl mice brains were evaluated. […] Specifically, FIGS. 5A-B illustrate protection of Tat 2A against oxidative and toxic injuries in primary mixed neuronal and astrocytes cultures from post natal mice brains. Neural progenitor/stem cells were isolated from murine cortex of postnatal c57/bl mice and cultured as neuro spheres. Neural and astroglial differentiation were induced.

For test [11] the test system is unchanged. Kind of test: 6-hydroxydopamine toxicity in primary cultures. The conditions noted are these: increasing concentrations of 6-hydroxydopamine (FIGS. 5A-B). In kind it is cell-based. On the procedure:
as §6, §7

The test system of test [12] is 6-hydroxydopamine hemiparkinsonian mice model. Briefly: In vivo 6-hydroxydopamine induced hemiparkinsonian mice model.
Test [13] deals with neuroblastoma cells overexpressing A53T alpha-synuclein. Kind of test: Hydrogen peroxide toxicity in cells overexpressing mutant alpha-synuclein. It counts as cell-based, human. Particulars: A53T alpha-synuclein cells exposed to hydrogen peroxide (FIG. 10). On the procedure:
The coding region of human wild-type or A53T mutant alpha-synuclein cDNA is subcloned into pcDNA3.1-plasmid (BD Biosciences, Clontech). In order to achieve overexpression of A53T mutant alpha-synuclein, SH-SY5Y neuroblastoma cells are stably transfected with the plasmid containing A53T mutant alpha-synuclein. Transfections are performed using the lipofectamine 2000 reagent (Invitrogen, Carlsbad, Calif.). Selection of transfected cells is performed by treating the cells with lethal doses of geniticin (G-418). Naive neuroblastoma cells as well as cells stably transfected with the empty vector are used as controls.
Stable transfections are verified by measuring alpha-synuclein mRNA and protein levels using real-time PCR and Western blotting.
A53T mutant alpha-synuclein is one of the causes for genetically inherited Parkinson's Disease. Neuroblastoma cells overexpressing mutated alpha-synuclein were used as a cellular platform for Parkinson's Disease. In order to achieve overexpression of A53T mutant alpha-synuclein, SH-SY5Y neuroblastoma cells were stably transfected with the plasmid containing A53T mutant alpha-synuclein.

Test [14] relates to MPTP Parkinson's model. Briefly: MPTP Parkinson's model in mice. In kind it is in vivo. Particulars: subcutaneous 0.4 mM; MPTP 20 mg/kg i.p. 5 consecutive days; 18 days later (FIG. 17). On the procedure: In order to generate an animal model for Parkinson's disease, mice were treated with 1-methyl-4-phenyl-1,2,3,6-tetrahydropyridine (MPTP). 5 mice (C57/bl) were injected for 5 consecutive days with 20 mg/kg MPTP (i.p.) in the presence and absence of the DJ-1 related peptide (0.4 mM subcutaneous; SEQ ID NO: 25). 18 days later, the mice were sacrificed and the dopamine level, in the two hemispheres was measured by HPLC.

On to GAEEME (Artificial seqence) [peptide I], for which the viability entry in [1] and in test [2] was “Increased viability” each time.

For the substance “KGAEEMETVIPV (Artificial seqence) [short 2a]”, the viability result in [2] was “Increased viability”.

“VDVMRRAGI (Artificial seqence) [peptide II]”: the viability result in test [1], in [3] (SH-SY5Y pretreated vs saline before 6-hydroxydopamine (FIG. 3)) and in test [2] was “Increased viability” throughout. For the same substance, the metabolic activities entry in test [4] is “Increased metabolic activities”.

Turning to “YGRKKRRKGAEEMETVIPVD (Artificial seqence) [TAT 2a]”, the viability entry in [5] is “Increased viability”; in test [9] it was “Increased viability”; in test [13], “Significantly increased viability”. The “protection against 6-hydroxydopamine toxicity” value in [3] (SH-SY5Y (FIG. 1E)) is “Protection”; in [11] it was “protection”. The “cell proliferation ([3H]thymidine incorporation)” value in [6] is given as “no increased cell proliferation”. The cell viability entry in [7] (exposure to H2O2, vs saline alone (FIG. 1A)) is on record as “Increased cell viability”. Also, the mitochondrial damage entry in [7] (exposure to H2O2, vs saline alone (FIG. 1B)) was “decreased mitochondrial damage”. Further, the metabolic activity result in [7] (exposure to H2O2, vs saline alone (FIG. 1C)) is on record as “increased metabolic activity”. Besides, the “protection against dopamine toxicity” value in test [8] was “Protection”. Also, the “protection against H2O2 toxicity” value in [10] is “protection”. Also, the metabolic activities result in test [4] was “Increased metabolic activities”. Also, the “fraction of the lesioned mice that rotated in response to amphetamine injection” value in test [12] (50 μg IV 4 hours before 6-hydroxydopamine lesioning (FIG. 16B)) and in test [12] (intrastriatal 2 μl of 100 μM one hour before lesioning (FIG. 15B)) was “smaller fraction” throughout. In addition, the amphetamine-induced rotations entry in test [12] (50 μg IV 4 hours before 6-hydroxydopamine lesioning, vs saline (FIG. 16A)) was “Significantly reduced”; in test [12] (intrastriatal 2 μl of 100 μM one hour before lesioning, 2 and 4 weeks after lesioning, vs saline (FIG. 15A)) it was “Significantly reduced”. In [12] (intrastriatal peptide vs saline-treated controls, p=0.02), the “accelerating Rotarod examination” value is “significant difference”. For the same substance, the “6-hydroxydopamine-induced loss of tyrosine hydroxylase (TH) staining in the lesioned striatum” value in test [12] (intrastriatal peptide, immunohistochemical staining) is “reversed”.

With “YGRKKRRTVIPVDVMRRAGI (Artificial seqence) [TAT 2b]”, the viability entry in [5] and in test [9] was “Increased viability” throughout. In addition, the “protection against MPTP Parkinson's model (dopamine level by HPLC)” value in test [14] was “protects”.
